Measurements published in patent US20230355646A1, “AUTOPHAGY ACTIVATOR” (Resonac Corporation, priority 2020, published 2023).

System: human neuroblastoma (SH-SY5Y)
Test: Apoptosis suppressing action caused by amyloid β in human neuroblastoma (Hoechst 33342 staining)
Assay type: cell-based
Description: The proportion of apoptotic cells in human neuroblastoma (SH-SY5Y; obtained from ATCC) in the presence of an autophagy activator was measured by the following test method to evaluate the apoptosis suppressing action of the autophagy activator.
In the following examples and comparative examples, tests were performed by adding amyloid β, which is known to induce cell death called apoptosis of nerve cells due to a decrease in autophagy, to each medium.
SH-SY5Y cells were prepared at a seeding density of 50000 cells/cm^2 and cultured for 24 hours in D-MEM medium/Ham's F-12 medium (manufactured by Sigma-Aldrich) to which 10% fetal bovine serum (manufactured by MP Biomedicals) was added. […]
Thereafter, an aqueous solution of 10 μM Hoechst 33342 (manufactured by Sigma-Aldrich) was added to each SH-SY5Y cell from which the medium was removed, and the cells were allowed to stand at room temperature (25° C.) for 10 minutes. After removing the solution, each SH-SY5Y cell was washed with phosphate buffer (PBS, manufactured by Wako Pure Chemical Industries, Ltd.), and with a fluorescence microscope, the number of cells showing strong apoptosis-like Hoechst fluorescence due to chromatin aggregation (Hoechst (+) cells) was counted. […]

COc1ccc([C@@H]2CC(=O)c3c(O)cc(O[C@@H]4O[C@H](CO[C@@H]5O[C@@H](C)[C@H](O)[C@@H](O)[C@H]5O)[C@@H](O)[C@H](O)[C@H]4O)cc3O2)cc1O [Comparative Example 2, hesperidin]
proportion of apoptotic cells (in words) (SH-SY5Y cells with amyloid β, compared to DMSO and amyloid β of Comparative Example 7): decreased | Proportion of apoptotic cells (SH-SY5Y cells, 30 μM amyloid β present, 10^−2% (V/V) methyl hesperidin or hesperidin, additional ingredient where in the example, 48 hours, relative value, Reference Example 4 = 1.00): 3.76
